# Reference: ChEMBL document CHEMBL1131172 (J Med Chem, 1998)
# Columns and labels:
# Dihydrofolate reductase [1] = target: T1, Dihydrofolate reductase (Rattus norvegicus, UniProt Q920D2)
# T1 sequence (Q920D2 whole entry): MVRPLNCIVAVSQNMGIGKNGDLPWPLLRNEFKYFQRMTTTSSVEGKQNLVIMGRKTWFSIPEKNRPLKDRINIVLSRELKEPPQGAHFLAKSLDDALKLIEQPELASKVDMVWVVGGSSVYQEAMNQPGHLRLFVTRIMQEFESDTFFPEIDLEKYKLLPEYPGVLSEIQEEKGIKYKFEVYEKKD
# Description: Inhibitory activity against dihydrofolate reductase (DHFR) from rat liver
# Dihydrofolate reductase [2] = target: T2, Dihydrofolate reductase (Pneumocystis carinii, UniProt P16184)
# T2 sequence (P16184 whole entry): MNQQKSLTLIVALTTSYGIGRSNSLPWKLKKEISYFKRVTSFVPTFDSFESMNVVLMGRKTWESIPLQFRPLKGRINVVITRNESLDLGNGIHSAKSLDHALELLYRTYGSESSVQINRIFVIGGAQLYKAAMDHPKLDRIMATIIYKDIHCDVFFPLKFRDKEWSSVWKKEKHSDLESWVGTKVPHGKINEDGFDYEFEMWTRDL
# Description: Inhibitory activity against dihydrofolate reductase (DHFR) from Pneumocystis carinii
# NCI/ADR-RES [3] = experiment: Inhibition of the growth of breast cancer (MCF7/ADR-RES) cell line at 0.01 uM; type: functional; settings: Homo sapiens
# KM12 [4] = experiment: Inhibition of the growth of colon cancer(KM-12) cell line at 0.01 uM; type: functional; settings: Homo sapiens
# NCI-H322M [5] = experiment: Inhibition of the growth of non-small-cell lung cancer (NCI-H322M) cell line at 0.01 uM; type: functional; settings: Homo sapiens
# HCT-116 [6] = experiment: Inhibition of the growth of colon cancer(HCT116) cell line; type: functional; settings: Homo sapiens
# SNB-19 [7] = experiment: inhibition of the growth of CNS cancer(SNB-19) cell line; type: functional; settings: Homo sapiens
# NCI-H23 [8] = experiment: inhibition of the growth of non-small-cell lung cancer (NCI-H23) cell line; type: functional; settings: Homo sapiens
# 786-0 [9] = experiment: Inhibition of the growth of renal cancer(786-0) cell line at 0.01 uM; type: functional; settings: Homo sapiens
# 786-0 [10] = experiment: inhibition of the growth of renal cancer(786-0) cell line; type: functional; settings: Homo sapiens
# DU-145 [11] = experiment: Inhibition of the growth of prostate cancer(DU-145) cell line at 0.01 uM; type: functional; settings: Homo sapiens
# NCI-H522 [12] = experiment: Inhibition of the growth of non-small-cell lung cancer (NCI-H522) cell line; type: functional; settings: Homo sapiens
# IGROV-1 [13] = experiment: inhibition of the growth of ovarian cancer(IGROVI) cell line; type: functional; settings: Homo sapiens
# SR [14] = experiment: Inhibition of the growth of leukemia(SR) cell line; type: functional; settings: Homo sapiens
# A549 [15] = experiment: Inhibition of the growth of non-small-cell lung cancer (A549/ATCC) cell line; type: functional; settings: Homo sapiens
# IGROV-1 [16] = experiment: Inhibition of the growth of ovarian cancer(IGROVI) cell line at 0.01 uM; type: functional; settings: Homo sapiens
# SR [17] = experiment: Inhibition of the growth of leukemia(SR) cell line at 0.01 uM; type: functional; settings: Homo sapiens
# MOLT-4 [18] = experiment: Inhibition of the growth of leukemia (MOLT-4) cell line at 0.01 uM; type: functional; settings: Homo sapiens
# M14 [19] = experiment: Inhibition of the growth of melanoma cancer (M14) cell line at 0.01 uM; type: functional; settings: Homo sapiens
# RPMI-8226 [20] = experiment: Inhibition of the growth of leukemia (RPMI-8226) cell line AT 0.01 uM; type: functional; settings: Homo sapiens
# HCT-15 [21] = experiment: Inhibition of the growth of colon cancer(HCT-15) cell line at 0.01 uM; type: functional; settings: Homo sapiens
# SF-295 [22] = experiment: Inhibition of the growth of CNS cancer(SF-295) cell line at 0.01 uM; type: functional; settings: Homo sapiens
# SNB-19 [23] = experiment: Inhibition of the growth of CNS cancer(SNB-19) cell line at 0.01 uM; type: functional; settings: Homo sapiens
# DU-145 [24] = experiment: inhibition of the growth of prostate cancer(DU-145) cell line; type: functional; settings: Homo sapiens
# CAKI-1 [25] = experiment: inhibition of the growth of renal cancer(CAKI-1) cell line; type: functional; settings: Homo sapiens
# M14 [26] = experiment: inhibition of the growth of melanoma cancer (M14) cell line; type: functional; settings: Homo sapiens
# RPMI-8226 [27] = experiment: Inhibition of the growth of leukemia (RPMI-8226) cell line; type: functional; settings: Homo sapiens
# SK-MEL-5 [28] = experiment: inhibition of the growth of melanoma cancer (SK-MEL-5) cell line; type: functional; settings: Homo sapiens
# UO-31 [29] = experiment: Inhibition of the growth of renal cancer(UO-31) cell line at 0.01 uM; type: functional; settings: Homo sapiens
# SF-268 [30] = experiment: Inhibition of the growth of CNS cancer(SF-268) cell line at 0.01 uM; type: functional; settings: Homo sapiens
# NCI-H522 [31] = experiment: Inhibition of the growth of non-small-cell lung cancer (NCI-H522) cell line at 0.01 uM; type: functional; settings: Homo sapiens
# NCI-H23 [32] = experiment: inhibition of the growth of non-small-cell lung cancer (NCI-H23) cell line at 0.01 uM; type: functional; settings: Homo sapiens
# NCI/ADR-RES [33] = experiment: inhibition of the growth of breast cancer (MCF7/ADR-RES) cell line; type: functional; settings: Homo sapiens
# NCI-H460 [34] = experiment: inhibition of the growth of non-small-cell lung cancer (NCI-H460) cell line; type: functional; settings: Homo sapiens
# KM12 [35] = experiment: inhibition of the growth of colon cancer(KM-12) cell line; type: functional; settings: Homo sapiens
# NCI-H322M [36] = experiment: inhibition of the growth of non-small-cell lung cancer (NCI-H322M) cell line; type: functional; settings: Homo sapiens
# MDA-MB-435 [37] = experiment: Inhibition of the growth of breast cancer (MDA-MB-435) cell line at 0.01 uM; type: functional; settings: Homo sapiens
# MCF7 [38] = experiment: Inhibition of the growth of breast cancer (MCF-7) cell line at 0.01 uM; type: functional; settings: Homo sapiens
# SF-539 [39] = experiment: Inhibition of the growth of CNS cancer(SF-539) cell line at 0.01 uM; type: functional; settings: Homo sapiens
# A549 [40] = experiment: Inhibition of the growth of non-small-cell lung cancer (A549/ATCC) cell line at 0.01 uM; type: functional; settings: Homo sapiens
# HCT-15 [41] = experiment: inhibition of the growth of colon cancer(HCT-15) cell line; type: functional; settings: Homo sapiens
# [42] = target: T3, Bifunctional dihydrofolate reductase-thymidylate synthase (Toxoplasma gondii, UniProt Q07422)
# T3 sequence (Q07422 whole entry): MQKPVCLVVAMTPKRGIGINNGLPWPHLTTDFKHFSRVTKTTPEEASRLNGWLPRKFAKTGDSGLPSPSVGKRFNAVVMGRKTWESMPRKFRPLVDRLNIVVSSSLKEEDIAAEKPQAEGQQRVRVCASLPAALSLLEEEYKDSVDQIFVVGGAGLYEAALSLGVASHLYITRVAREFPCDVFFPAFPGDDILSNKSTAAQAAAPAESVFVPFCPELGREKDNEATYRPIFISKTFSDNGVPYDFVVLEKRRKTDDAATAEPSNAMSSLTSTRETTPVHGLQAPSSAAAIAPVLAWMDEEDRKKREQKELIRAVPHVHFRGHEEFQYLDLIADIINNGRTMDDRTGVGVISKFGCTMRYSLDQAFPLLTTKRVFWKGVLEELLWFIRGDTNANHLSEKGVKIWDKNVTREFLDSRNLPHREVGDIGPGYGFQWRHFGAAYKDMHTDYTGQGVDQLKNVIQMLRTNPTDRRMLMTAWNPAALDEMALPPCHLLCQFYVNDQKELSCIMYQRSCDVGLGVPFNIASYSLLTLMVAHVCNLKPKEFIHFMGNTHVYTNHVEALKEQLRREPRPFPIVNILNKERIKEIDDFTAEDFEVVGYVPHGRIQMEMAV
# Description: Inhibitory activity against dihydrofolate reductase (DHFR) from Toxoplasma gondii
# MDA-N [43] = experiment: Inhibition of the growth of breast cancer(MDA-N) cell line at 0.01 uM; type: functional; settings: Homo sapiens
# MOLT-4 [44] = experiment: Inhibition of the growth of leukemia (MOLT-4) cell line; type: functional; settings: Homo sapiens
# NCI-H460 [45] = experiment: Inhibition of the growth of non-small-cell lung cancer (NCI-H460) cell line at 0.01 uM; type: functional; settings: Homo sapiens
# HCT-116 [46] = experiment: Inhibition of the growth of colon cancer(HCT116) cell line at 0.01 uM; type: functional; settings: Homo sapiens
# SF-268 [47] = experiment: inhibition of the growth of CNS cancer(SF-268) cell line; type: functional; settings: Homo sapiens
# OVCAR-8 [48] = experiment: inhibition of the growth of ovarian cancer(OVCAR-8) cell line; type: functional; settings: Homo sapiens
# MDA-N [49] = experiment: inhibition of the growth of breast cancer(MDA-N) cell line; type: functional; settings: Homo sapiens
# MDA-MB-435 [50] = experiment: Inhibition of the growth of breast cancer (MDA-MB-435) cell line; type: functional; settings: Homo sapiens
# UO-31 [51] = experiment: inhibition of the growth of renal cancer(UO-31) cell line; type: functional; settings: Homo sapiens
# OVCAR-8 [52] = experiment: Inhibition of the growth of ovarian cancer(OVCAR-8) cell line at 0.01 uM; type: functional; settings: Homo sapiens
# MCF7 [53] = experiment: inhibition of the growth of breast cancer (MCF-7) cell line; type: functional; settings: Homo sapiens
# SK-MEL-5 [54] = experiment: Inhibition of the growth of melanoma cancer (SK-MEL-5) cell line at 0.01 uM; type: functional; settings: Homo sapiens
# SF-295 [55] = experiment: inhibition of the growth of CNS cancer(SF-295) cell line; type: functional; settings: Homo sapiens
# SF-539 [56] = experiment: inhibition of the growth of CNS cancer(SF-539) cell line; type: functional; settings: Homo sapiens
# CAKI-1 [57] = experiment: Inhibition of the growth of renal cancer(CAKI-1) cell line at 0.01 uM; type: functional; settings: Homo sapiens
smiles,measurement,setting,value
COc1ccc(N(C)c2ccc3nc(N)nc(N)c3n2)cc1OC,IC50,Dihydrofolate reductase [1],0.4 nM
same,IC50,Dihydrofolate reductase [2],2.3 nM
same,inhibition at 0.01 µM,NCI/ADR-RES [3],84%
same,inhibition at 0.01 µM,KM12 [4],56%
same,inhibition at 0.01 µM,NCI-H322M [5],53%
same,GI50,HCT-116 [6],< 10 nM
same,GI50,SNB-19 [7],< 10 nM
same,GI50,NCI-H23 [8],< 10 nM
same,inhibition at 0.01 µM,786-0 [9],53%
same,GI50,786-0 [10],< 10 nM
same,inhibition at 0.01 µM,DU-145 [11],57%
same,GI50,NCI-H522 [12],< 10 nM
same,GI50,IGROV-1 [13],< 10 nM
same,GI50,SR [14],< 10 nM
same,GI50,A549 [15],< 10 nM
same,inhibition at 0.01 µM,IGROV-1 [16],65%
same,inhibition at 0.01 µM,SR [17],69%
same,inhibition at 0.01 µM,MOLT-4 [18],57%
same,inhibition at 0.01 µM,M14 [19],59%
same,inhibition at 0.01 µM,RPMI-8226 [20],69%
same,inhibition at 0.01 µM,HCT-15 [21],75%
same,inhibition at 0.01 µM,SF-295 [22],68%
same,inhibition at 0.01 µM,SNB-19 [23],90%
same,GI50,DU-145 [24],< 10 nM
same,GI50,CAKI-1 [25],< 10 nM
same,GI50,M14 [26],< 10 nM
same,GI50,RPMI-8226 [27],< 10 nM
same,GI50,SK-MEL-5 [28],< 10 nM
same,inhibition at 0.01 µM,UO-31 [29],100%
same,inhibition at 0.01 µM,SF-268 [30],52%
same,inhibition at 0.01 µM,NCI-H522 [31],59%
same,inhibition at 0.01 µM,NCI-H23 [32],82%
same,GI50,NCI/ADR-RES [33],< 10 nM
same,GI50,NCI-H460 [34],< 10 nM
same,GI50,KM12 [35],< 10 nM
same,GI50,NCI-H322M [36],< 10 nM
same,inhibition at 0.01 µM,MDA-MB-435 [37],72%
same,inhibition at 0.01 µM,MCF7 [38],60%
same,inhibition at 0.01 µM,SF-539 [39],67%
same,inhibition at 0.01 µM,A549 [40],70%
same,GI50,HCT-15 [41],< 10 nM
same,IC50,[42],0.88 nM
same,inhibition at 0.01 µM,MDA-N [43],63%
same,GI50,MOLT-4 [44],< 10 nM
same,inhibition at 0.01 µM,NCI-H460 [45],83%
same,inhibition at 0.01 µM,HCT-116 [46],83%
same,GI50,SF-268 [47],< 10 nM
same,GI50,OVCAR-8 [48],< 10 nM
same,GI50,MDA-N [49],< 10 nM
same,GI50,MDA-MB-435 [50],< 10 nM
same,GI50,UO-31 [51],< 10 nM
same,inhibition at 0.01 µM,OVCAR-8 [52],76%
same,GI50,MCF7 [53],< 10 nM
same,inhibition at 0.01 µM,SK-MEL-5 [54],83%
same,GI50,SF-295 [55],< 10 nM
same,GI50,SF-539 [56],< 10 nM
same,inhibition at 0.01 µM,CAKI-1 [57],81%
